Source: US20100037351A1, “Alteration of Phospholipase De (PLDe) or Phospholipase Da3 (PLD a3) Expression in Plants” (DONALD DANFORTH PLANT SCIENCE CENTER, priority 2008, published 2010)

Assays:
Arabidopsis seedlings = conditions: for effect on number and length of lateral roots: MS with 6 mM N containing 0.15% butanol, OE, WT and KO seedlings, measured 6 days after transfer
Protocol: (A) Four-day-old seedlings were transferred to Murashige and Skoog (MS) containing 6 mM N for 12 days. […] Root length and number were measured 6 days after transfer. Values are means±SD (n=30).
To test N response on plates, surface-sterilized seeds were germinated in MS (1×) agar plates supplement with 3% sucrose for 4 days and then were transferred to modified MS agar plates containing 0.1, 0.6, 2, 6, 60 mM N, NO3^−:NH4^−=2:1). […] Seedlings were grown on plates in a vertical orientation in a growth chamber under the conditions of 16-h light/8-h dark, 23/21° C., cool fluorescent white light (200 mmol m^−2 s^−1). Alternatively, seeds were also directly germinated in agar plates with the same conditions as described above.

S6K = S6K binding to lipids immobilized on a nitrocellulose filter; parameters: species or system Arabidopsis; conditions: 10 mg lipid spotted; leaf proteins 1.2 mg/ml; anti-human p70 S6K antibody
Protocol: FIG. 5 depicts S6K levels under different N levels. (A) and (B) S6K protein levels detected by immunoblotting with anti-p70 S6K and anti-phospho-p70 S6K (Thr389) antibodies, respectively. Four-day-old seedlings were transferred to MS plates with the indicated N levels for 10 days. The same amount of proteins ([…]/lane) was separated by 10% SDS-PAGE and transferred to a nitrocellulose membrane. (C) S6K binding to PA immobilized on filter. Lipid (10 mg) was spotted on nitrocellulose filter, and incubated with leaf proteins (1.2 mg/ml), followed by blotting with anti-human p70 S6K antibody. (D) S6K binding to liposomes composed of PA (PA:PC=1:2), PC, or PI only (650 nmol of total lipids). (E) Total S6K, but not phosphorylated S6K binding to PA:PC liposomes. Proteins were extracted from WT and PLDε-altered seedlings. Bound proteins were separated by SDS-PAGE and detected by blotting with anti-human p70 S6K antibody or anti-human p389 p70 S6K antibody.
PLDε: PA-Protein Binding by Blotting and Liposomal Assays. S6K binding to lipids immobilized on a nitrocellulose filter was performed as described (Zhang, W., Qin, C., Zhao, J. & Wang, X. (2004) Proc. Natl. Acad. Sci. USA. 101, 9508-9513; Stevenson, J. M., Perera, I. Y. & Boss, W. F. (1998) J Biol Chem. 273, 22761-22767) with minor modifications. […] Protein binding to liposome was detected by immunoblotting as described above.

Row | Molecule | effect on number and length of lateral roots (Arabidopsis seedlings) | S6K binding to lipid immobilized on filter (S6K) | effect on biomass accumulation (Arabidopsis seedlings; 1-butanol treatment, data not shown)
1 | CCC(C)O (stereo not shown) [2-butanol] | no growth inhibitory effect | – | –
2 | phosphatidic acid [PA] | – | bound | –
3 | CCCCO [1-Butanol, 1-butanol] | inhibited | – | inhibited
